Experimental data: publication PMC12498411, “Antidepressant-like Properties of a Selenium-Containing Pyridinium Salt Explored through In Vitro, In Vivo, and In Silico Approaches” (ACS Chemical Neuroscience, 2025)
Like-named read-outs stand apart in the source and are kept apart here.

Columns and labels:
[1] = system: cerebral lipid peroxidation; experiment: TBARS assay, SNP-induced lipid peroxidation in brain homogenate; format: biochemical, mouse; settings: mouse brain homogenate, SNP-induced
Experimental: Brains from mice of both sexes were used for in vitro assays, each performed in duplicate across three independent experiments (n = 3), conducted on different days.
The brain tissues were homogenized in a 50 mM Tris-HCl buffer at pH 7.4, using a 1:10 ratio (w/v). The freshly prepared homogenate was then centrifuged at 900g for 10 min, yielding a low-speed supernatant (S1). Lipid peroxidation was evaluated using the TBARS method as previously described. Lipid peroxidation was induced by 0.3 mM SNP. A 100 μL aliquot of S1 was incubated for 1 h at 37 °C in the presence of the compounds 3A, 3B, and 3C at concentrations ranging from 25 to 500 μM, and SNP or water (to control). The color reaction was initiated by adding 500 μL of a 0.8% thiobarbituric acid (TBA) solution, followed by 200 μL of 8.1% sodium dodecyl sulfate (SDS) and 500 μL of acetic acid (pH 3.4). The reaction mixture was incubated at 95 °C for 1 h. The absorbance was measured using a spectrophotometer at a wavelength of 532 nm. Trolox (100 μM), an antioxidant analogous to vitamin E, served as a positive control. The results were reported as nmol TBARS per gram of tissue. A parallel TBARS experiment was also conducted using a standard alkyl aryl selenide (2-((phenylselanyl)-methyl)-pyridine), dissolved in DMSO at the same concentrations tested, ranging from 25 to 500 μM.

[2] = biological target: T1, MAO-B (Mus musculus, UniProt Q8BW75); experiment: Cerebral MAO-B activity, mitochondria-enriched mouse brain fraction (kynuramine, fluorimetric); format: biochemical
T1 construct: Mitochondria-enriched brain preparations were obtained in accordance with established methodology outlined in literature; from tissue; host or cells: mouse brain, mitochondria-enriched fraction
T1 sequence (Q8BW75 1-520): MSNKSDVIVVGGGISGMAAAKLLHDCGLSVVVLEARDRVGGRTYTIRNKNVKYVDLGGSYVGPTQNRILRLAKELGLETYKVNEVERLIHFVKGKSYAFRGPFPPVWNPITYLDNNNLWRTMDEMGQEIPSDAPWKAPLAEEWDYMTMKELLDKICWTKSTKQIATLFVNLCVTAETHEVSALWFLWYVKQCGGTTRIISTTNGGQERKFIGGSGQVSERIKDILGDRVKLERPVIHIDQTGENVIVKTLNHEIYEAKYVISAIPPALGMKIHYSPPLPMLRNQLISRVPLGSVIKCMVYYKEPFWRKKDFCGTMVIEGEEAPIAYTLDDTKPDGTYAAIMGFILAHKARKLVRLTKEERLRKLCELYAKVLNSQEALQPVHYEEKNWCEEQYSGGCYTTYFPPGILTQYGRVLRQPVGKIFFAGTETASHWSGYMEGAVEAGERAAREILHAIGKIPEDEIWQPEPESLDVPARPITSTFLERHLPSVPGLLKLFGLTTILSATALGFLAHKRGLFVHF
Experimental: Mitochondria-enriched brain preparations were obtained in accordance with established methodology outlined in literature. The homogenate was prepared using the mouse brain tissue and a homogenization buffer (Na2PO4/KH2PO4/sucrose) at a ratio of 1:4 (w/v). The homogenate was centrifuged at 900g at 4 °C for 5 min. The resulting supernatant was separated and subjected to centrifugation at 12,500g for 15 min. The resulting pellet was resuspended in the homogenization buffer and subjected to a further round of centrifugation under identical conditions. Finally, the mitochondrial pellet obtained was reconstituted in an assay buffer solution (Na2PO4/KH2PO4/KCl). Protein concentration was estimated using the Bradford method and standardized as 1 mg/mL for the experiments.
MAO activity was assessed following the method outlined by Krajl, with some modifications by Matsumoto. Briefly, a 100 μL aliquot of the mitochondria-rich fraction was incubated at 37 °C for 5 min with specific MAO inhibitors: clorgyline (250 nM, a MAO-A inhibitor), or pargyline (250 nM, a MAO-B inhibitor). Then, 10 μL of each compound was introduced at varying concentrations (25–200 μM). Water (10 μL) was used in the control tubes. Afterward, the substrate, 20 μL of kynuramine dihydrobromide, was added to achieve a final concentration of 90 μM for MAO-A and 60 μM for MAO-B. The samples were incubated at 37 °C for 30 min. The reaction was halted by the addition of 300 μL of 10% trichloroacetic acid (TCA). After centrifuging at 16,000g for 15 min, an aliquot of 800 μL of the supernatant was mixed with 1 mL of 1 M sodium hydroxide (NaOH). The samples were measured using a fluorimeter with excitation at 315 nm and emission at 380 nm.

[3] = system: male Swiss mice; experiment: Tail suspension test (TST); format: in vivo, mouse
Experimental: A behavioral screening was conducted using the three salts to determine their potential antidepressant-like actions (n = 7–9 mice/group).
A dosage of 5 mg/kg (intragastric route, i.g., by gavage) was administered to all groups receiving the salts. […] The TST was conducted 30 min following drug administration, with the OFT being performed 4 min prior to the TST.
Following the selection of the most promising salt during screening (Compound 3B), an analysis of the compound’s time-response curve was conducted in the mouse TST. For this purpose, the animals were divided into five groups: (I) control (water; i.g.), (II) the group receiving compound 3B 15 min prior to TST, (III) the group receiving compound 3B 30 min before TST, (IV) the group receiving compound 3B 60 min before TST, and (V) the group receiving compound 3B 120 min before TST. The dosage of salt was standardized at 5 mg/kg (i.g). OFT was conducted 4 min prior to the TST.
After choosing a suitable preadministration time, the dose–response curve of the compound at this fixed time was analyzed. The animals were categorized into […]: I) a control group (administered water; i.g.) and groups II, III, IV and V) receiving compound 3B at doses of 0.5 mg/kg, 1 mg/kg, 2.5 mg/kg, and 5 mg/kg (i.g.), respectively. […] Thirty minutes postadministration, the animals underwent the TST. Four minutes prior to the TST, they underwent the OFT.
This test aims to assess depressive-like behavior and antidepressant-like action of therapies by measuring immobility. […] The test was conducted using a mouse suspension box made of wood, measuring 50 cm × 21 cm × 21 cm, designed to prevent any visual or physical interaction among the animals. A suspension bar was positioned atop the box, and the mouse’s tail was affixed to the bar using adhesive tape. The test duration was 6 min, during which the animal’s latency to the first immobility episode and the total duration of immobility (sec) were assessed.

[4] = salts 5 mg/kg i.g., fluoxetine 20 mg/kg i.p., 30 min before test

Compound | IC50 [1] [µM] | IC50 [2] [µM] | Minimum effective dose for antidepressant-like action ([3]; TST, i.g., 30 min) [mg/kg] | TST latency time to first immobility episode, screening [3, 4] | TST total immobility time, screening [3, 4] | Cohen-D effect size in TST ([3]; screening, 5 mg/kg i.g., 30 min) | IC50 ([2]; mouse brain mitochondria-rich fraction, 25–200 μM, kynuramine 60 μM, read-out: IC50 for MAO-B) [µM] | Concentrations with significant inhibition of MAO-B activity ([2]; tested 25–200 μM, Dunnett vs control) [µM]
O=C(C[n+]1ccccc1C[Se]c1ccccc1)c1ccccc1.[Br-] [Compound 3A, 1-(2-oxo-2-phenylethyl)-2-((phenylselanyl)methyl)pyridin-1-ium bromide] | 150 | 129 | – | – | – | – | – | –
Cc1ccc(C(=O)C[n+]2ccccc2C[Se]c2ccccc2)cc1 [Compound 3B, 1-(2-oxo-2-(p-tolyl)ethyl)-2-((phenylselanyl)methyl)pyridin-1-ium bromide] | 130 | – | 1 | significantly increased latency time | shorter total immobility times | > 1.77 | 91.1 | ≥ 50
